Experimental data published in patent US20200078307A1, “POROUS SILICA PARTICLES FOR USE IN A COMPRESSED PHARMACEUTICAL DOSAGE FORM” (Nanologica AB, priority 2018, published 2020).
Converted amounts (≈) assume the structure as drawn. Read-outs that look alike come from different tables or passages of the source.

Tests used:
[1] = Release kinetics of melatonin, USP Apparatus 2 dissolution testing; format: physicochemical; conditions: after 20 minutes; 500 ml buffer pH 6.8, 50 rpm, 37° C., 5 mg melatonin
Description: The release kinetics of melatonin was monitored using a USP Apparatus 2 dissolution testing system. The release was performed in 500 ml buffer at pH 6.8 (reflecting the pH in the oral cavity, typically in the range of pH 6.7 to 7.3) at 50 rpm stirring rate and 37° C. The dose in the dissolution tests was equivalent to 5 mg of melatonin. Melatonin was bought from PureBulk, Inc. USA. The dosage form with melatonin was compared to reference product from CVS Health, USA using the technology mentioned in U.S. Pat. No. 9,381,190 Other ingredients in the formulation include Microcrystalline cellulose (MCC) and Low-Substituted Hydroxypropyl Cellulose (L-HPC) Mannitol and magnesium stearate.

[2] = HPLC stability of melatonin during loading and storage; format: physicochemical; conditions: during loading and after storage at 4° C.
[3] = cited from earlier work

Structure (SMILES): COc1ccc2[nH]cc(CCNC(C)=O)c2c1 [melatonin]
- dissolution (melatonin released) [1]: 93%
- stability (HPLC) [2]: no degradation

Structure (SMILES): CCN(CC)CCNC(=O)c1cc(Cl)c(N)cc1OC [metoclopramide]
- solubility ([3]; in buffer at pH 6.8): 10000 µg/mL (≈ 33.4 mM)
- solubility ([3]; in water): > 6000 µg/mL
